Data on 1 compound can be found in ChEMBL document CHEMBL4190202, “Gunnilactams A-C, Macrocyclic Tetralactams from the Mycelial Culture of the Entomogenous Fungus Paecilomyces gunnii” (J Nat Prod, 2017).

One may read the IC50 as the midpoint of a concentration-inhibition curve. Lower therefore signals inhibition by little substance.

The subject of one assay is LNCaP C4-2B. Kind of assay: Cytotoxicity against human C4-2B cells after 72 hrs by MTT assay. The assay is classed as functional, cell-based. A general note: Tetrazolium assays rely on reduction of a dye to a coloured formazan, in cell work by metabolically active cells.
Another assay concerns DU-145. Nature of the assay: Growth inhibition of human DU145 cells at 2 uM after 72 hrs by MTT assay relative to control. In kind it is functional. Particulars: DU-145, 72 h, read-out: GI.

In turn, `C[C@@H]1NC(=O)/C=C/[C@@H](O)CC[C@H](C)NC(=O)[C@H]2C[C@]1(O)NC1=C2C(=O)N[C@@H](C)C1` showed an IC50 with LNCaP C4-2B of 5.4 µM. Also, the inhibition of growth at 2 µM with DU-145 was determined as 4.5%.
